From patent US20230085307A1, “PYRIDAZINONE COMPOUND AND HERBICIDE” (NISSAN CHEMICAL CORPORATION, priority 2019, published 2023)

How the values were obtained:
[1] = system: late watergrass; test: Test Example 1: herbicidal activity, application before weed generation under submerged conditions (Table 16, symbol A); assay type: in vivo, late watergrass (Echinochloa oryzicola); settings: amount of applied herbicide 320 g/ha
Method in brief: (§1)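 Submerged Wagner pots (alluvial soil, 4 cm water) sown with weed seeds and planted with 2.5-leaf rice seedlings; emulsifiable concentrate diluted in water applied to water surface on sowing day. Held in greenhouse at 25-30 °C; injury scored 0-5 by herbicidal rate after three weeks.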

[2] = system: Japanese bulrush; test: Test Example 1: herbicidal activity, application before weed generation under submerged conditions (Table 16, symbol B); assay type: in vivo, Japanese bulrush (Schoenoplectus juncoides); settings: amount of applied herbicide 320 g/ha
Method in brief: as §1

[3] = system: oval-leafed pondweed; test: Test Example 1: herbicidal activity, application before weed generation under submerged conditions (Table 16, symbol C); assay type: in vivo, oval-leafed pondweed (Monochoria vaginalis); settings: amount of applied herbicide 320 g/ha
Method in brief: as §1

[4] = system: barnyard grass; test: Test Example 3: herbicidal effect by foliage application, Wagner pot (Table 18, symbol H); assay type: in vivo, barnyard grass (Echinochloa crus-galli); settings: 320 g/ha
Method in brief: (§2)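 Plants were sown in alluvial soil held under 0.1–0.5 cm standing water and grown 14 days in a greenhouse at 25–30 °C. An emulsifiable formulation, water-diluted to the set dose, was then sprayed onto the foliage, and effects were scored three weeks later using previously defined criteria.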

[5] = system: Chinese sprangletop; test: Test Example 3: herbicidal effect by foliage application, Wagner pot (Table 18, symbol D); assay type: in vivo, chinese sprangletop (Leptochloa chinensis); settings: 320 g/ha
Method in brief: as §2

[6] = system: rice flat sedge; test: Test Example 3: herbicidal effect by foliage application, Wagner pot (Table 18, symbol E); assay type: in vivo, rice flat sedge (Cyperus iria); settings: 320 g/ha
Method in brief: as §2

[7] = system: southern crabgrass; test: Test Example 4: herbicidal effect by soil treatment (Table 19, symbol F); assay type: in vivo, southern crabgrass (Digitaria ciliaris); settings: amount of applied herbicide 320 g/ha
Method in brief: (§3)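 Three weeks of greenhouse growth at 25° C. to 30° C. followed a uniform surface spray of water-diluted emulsion at a predetermined herbicide amount. Seeds had been sown beforehand under about 1.5 cm of sterilized diluvial soil. Grading followed criteria set out in an earlier test.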

[8] = system: green foxtail; test: Test Example 4: herbicidal effect by soil treatment (Table 19, symbol G); assay type: in vivo, green foxtail (Setaria viridis); settings: amount of applied herbicide 320 g/ha
Method in brief: as §3

[9] = system: barnyard grass; test: Test Example 4: herbicidal effect by soil treatment (Table 19, symbol H); assay type: in vivo, barnyard grass (Echinochloa crus-galli); settings: amount of applied herbicide 320 g/ha
Method in brief: as §3

[10] = system: wild oat; test: Test Example 4: herbicidal effect by soil treatment (Table 19, symbol I); assay type: in vivo, wild oat (Avena fatua); settings: amount of applied herbicide 320 g/ha
Method in brief: as §3

[11] = system: blackgrass; test: Test Example 4: herbicidal effect by soil treatment (Table 19, symbol J); assay type: in vivo, blackgrass (Alopecurus myosuroides); settings: amount of applied herbicide 320 g/ha
Method in brief: as §3

[12] = system: Italian ryegrass; test: Test Example 4: herbicidal effect by soil treatment (Table 19, symbol K); assay type: in vivo, Italian ryegrass (Lolium multiflorum); settings: amount of applied herbicide 320 g/ha
Method in brief: as §3

[13] = system: windgrass; test: Test Example 4: herbicidal effect by soil treatment (Table 19, symbol L); assay type: in vivo, windgrass (Apera spica-venti); settings: amount of applied herbicide 320 g/ha
Method in brief: as §3

[14] = system: velvetleaf; test: Test Example 4: herbicidal effect by soil treatment (Table 19, symbol M); assay type: in vivo, velvetleaf (Abutilon theophrasti); settings: amount of applied herbicide 320 g/ha
Method in brief: as §3

[15] = system: redroot pigweed; test: Test Example 4: herbicidal effect by soil treatment (Table 19, symbol N); assay type: in vivo, redroot pigweed (Amaranthus retroflexus); settings: amount of applied herbicide 320 g/ha
Method in brief: as §3

[16] = system: lambsquarters; test: Test Example 4: herbicidal effect by soil treatment (Table 19, symbol O); assay type: in vivo, lambsquarters (Chenopodium album); settings: amount of applied herbicide 320 g/ha
Method in brief: as §3

[17] = system: chickweed; test: Test Example 4: herbicidal effect by soil treatment (Table 19, symbol P); assay type: in vivo, common chickweed (Stellaria media); settings: amount of applied herbicide 320 g/ha
Method in brief: as §3

[18] = system: false cleavers; test: Test Example 4: herbicidal effect by soil treatment (Table 19, symbol Q); assay type: in vivo, false cleavers (Galium spurium); settings: amount of applied herbicide 320 g/ha
Method in brief: as §3

[19] = system: persian speedwell; test: Test Example 4: herbicidal effect by soil treatment (Table 19, symbol R); assay type: in vivo, Persian speedwell (Veronica persica); settings: amount of applied herbicide 320 g/ha
Method in brief: as §3

[20] = system: southern crabgrass; test: Test Example 5: herbicidal effect by foliage application, plastic box (Table 20, symbol F); assay type: in vivo, southern crabgrass (Digitaria ciliaris); settings: foliage application, 320 g/ha, three weeks after application
Method in brief: (§4)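 Plants sown in sterilized diluvial soil and grown 14 days in a greenhouse at 25° C to 30° C, then sprayed on the foliage with the compound's emulsion diluted in water to a predetermined herbicide amount. Injury to weeds and crops scored three weeks after application on a visual rating scale.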

[21] = system: green foxtail; test: Test Example 5: herbicidal effect by foliage application, plastic box (Table 20, symbol G); assay type: in vivo, green foxtail (Setaria viridis); settings: foliage application, 320 g/ha, three weeks after application
Method in brief: as §4

[22] = system: barnyard grass; test: Test Example 5: herbicidal effect by foliage application, plastic box (Table 20, symbol H); assay type: in vivo, barnyard grass (Echinochloa crus-galli); settings: foliage application, 320 g/ha, three weeks after application
Method in brief: as §4

[23] = system: wild oat; test: Test Example 5: herbicidal effect by foliage application, plastic box (Table 20, symbol I); assay type: in vivo, wild oat (Avena fatua); settings: foliage application, 320 g/ha, three weeks after application
Method in brief: as §4

[24] = system: blackgrass; test: Test Example 5: herbicidal effect by foliage application, plastic box (Table 20, symbol J); assay type: in vivo, blackgrass (Alopecurus myosuroides); settings: foliage application, 320 g/ha, three weeks after application
Method in brief: as §4

[25] = system: Italian ryegrass; test: Test Example 5: herbicidal effect by foliage application, plastic box (Table 20, symbol K); assay type: in vivo, Italian ryegrass (Lolium multiflorum); settings: foliage application, 320 g/ha, three weeks after application
Method in brief: as §4

[26] = system: windgrass; test: Test Example 5: herbicidal effect by foliage application, plastic box (Table 20, symbol L); assay type: in vivo, windgrass (Apera spica-venti); settings: foliage application, 320 g/ha, three weeks after application
Method in brief: as §4

[27] = system: velvetleaf; test: Test Example 5: herbicidal effect by foliage application, plastic box (Table 20, symbol M); assay type: in vivo, velvetleaf (Abutilon theophrasti); settings: foliage application, 320 g/ha, three weeks after application
Method in brief: as §4

[28] = system: redroot pigweed; test: Test Example 5: herbicidal effect by foliage application, plastic box (Table 20, symbol N); assay type: in vivo, redroot pigweed (Amaranthus retroflexus); settings: foliage application, 320 g/ha, three weeks after application
Method in brief: as §4

[29] = system: lambsquarters; test: Test Example 5: herbicidal effect by foliage application, plastic box (Table 20, symbol O); assay type: in vivo, lambsquarters (Chenopodium album); settings: foliage application, 320 g/ha, three weeks after application
Method in brief: as §4

[30] = system: chickweed; test: Test Example 5: herbicidal effect by foliage application, plastic box (Table 20, symbol P); assay type: in vivo, common chickweed (Stellaria media); settings: foliage application, 320 g/ha, three weeks after application
Method in brief: as §4

[31] = system: false cleavers; test: Test Example 5: herbicidal effect by foliage application, plastic box (Table 20, symbol Q); assay type: in vivo, false cleavers (Galium spurium); settings: foliage application, 320 g/ha, three weeks after application
Method in brief: as §4

[32] = system: persian speedwell; test: Test Example 5: herbicidal effect by foliage application, plastic box (Table 20, symbol R); assay type: in vivo, Persian speedwell (Veronica persica); settings: foliage application, 320 g/ha, three weeks after application
Method in brief: as §4

Row | Compound | Herbicidal effect, A: late watergrass [1] | Herbicidal effect, B: Japanese bulrush [2] | Herbicidal effect, C: oval-leafed pondweed [3] | herbicidal effect on barnyard grass (H) [4] | herbicidal effect on Chinese sprangletop (D) [5] | herbicidal effect on rice flat sedge (E) [6] | F: southern crabgrass, herbicidal effect grade [7] | G: green foxtail, herbicidal effect grade [8] | H: barnyard grass, herbicidal effect grade [9] | I: wild oat, herbicidal effect grade [10] | J: blackgrass, herbicidal effect grade [11] | K: Italian ryegrass, herbicidal effect grade [12] | L: windgrass, herbicidal effect grade [13] | M: velvetleaf, herbicidal effect grade [14] | N: redroot pigweed, herbicidal effect grade [15] | O: lambsquarters, herbicidal effect grade [16] | P: chickweed, herbicidal effect grade [17] | Q: false cleavers, herbicidal effect grade [18] | R: persian speedwell, herbicidal effect grade [19] | F: southern crabgrass, herbicidal effect grade [20] | also measured
1 | Cc1ccc2c(-c3c(O)c(C)nn(C)c3=O)c(-c3ccc4c(c3)OCCO4)sc2c1 [3-059] | 2 (Herbicidal rate of 20% or more and less than 40%) | 1 (Herbicidal rate of 5% or more and less than 20%) | 2 (Herbicidal rate of 20% or more and less than 40%) | 4 (Herbicidal rate of 70% or more and less than 90%) | 0 (Herbicidal rate of 5% or less (almost no effect)) | 4 (Herbicidal rate of 70% or more and less than 90%) | 0 (Herbicidal rate of 5% or less (almost no effect)) | 0 (Herbicidal rate of 5% or less (almost no effect)) | 0 (Herbicidal rate of 5% or less (almost no effect)) | 0 (Herbicidal rate of 5% or less (almost no effect)) | 0 (Herbicidal rate of 5% or less (almost no effect)) | 0 (Herbicidal rate of 5% or less (almost no effect)) | 0 (Herbicidal rate of 5% or less (almost no effect)) | 0 (Herbicidal rate of 5% or less (almost no effect)) | 0 (Herbicidal rate of 5% or less (almost no effect)) | 0 (Herbicidal rate of 5% or less (almost no effect)) | 0 (Herbicidal rate of 5% or less (almost no effect)) | 0 (Herbicidal rate of 5% or less (almost no effect)) | 5 (Herbicidal rate of 90% or more (almost completely withered)) | 0 (Herbicidal rate of 5% or less (almost no effect)) | G: green foxtail, herbicidal effect grade [21]: 0 (Herbicidal rate of 5% or less (almost no effect)); H: barnyard grass, herbicidal effect grade [22]: 0 (Herbicidal rate of 5% or less (almost no effect)); I: wild oat, herbicidal effect grade [23]: 0 (Herbicidal rate of 5% or less (almost no effect)); J: blackgrass, herbicidal effect grade [24]: 0 (Herbicidal rate of 5% or less (almost no effect)); K: Italian ryegrass, herbicidal effect grade [25]: 4 (Herbicidal rate of 70% or more and less than 90%); L: windgrass, herbicidal effect grade [26]: 0 (Herbicidal rate of 5% or less (almost no effect)); M: velvetleaf, herbicidal effect grade [27]: 0 (Herbicidal rate of 5% or less (almost no effect)); N: redroot pigweed, herbicidal effect grade [28]: 0 (Herbicidal rate of 5% or less (almost no effect)); O: lambsquarters, herbicidal effect grade [29]: 0 (Herbicidal rate of 5% or less (almost no effect)); P: chickweed, herbicidal effect grade [30]: 5 (Herbicidal rate of 90% or more (almost completely withered)); Q: false cleavers, herbicidal effect grade [31]: 2 (Herbicidal rate of 20% or more and less than 40%); R: persian speedwell, herbicidal effect grade [32]: 5 (Herbicidal rate of 90% or more (almost completely withered))
2 | COc1ccc2c(-c3c(O)c(C)nn(C)c3=O)c(-c3ccc(SC)cc3)sc2c1 [3-074] | 0 (Herbicidal rate of 5% or less (almost no effect)) | 2 (Herbicidal rate of 20% or more and less than 40%) | 0 (Herbicidal rate of 5% or less (almost no effect)) | 4 (Herbicidal rate of 70% or more and less than 90%) | 3 (Herbicidal rate of 40% or more and less than 70%) | 5 (Herbicidal rate of 90% or more (almost completely withered)) | 0 (Herbicidal rate of 5% or less (almost no effect)) | 0 (Herbicidal rate of 5% or less (almost no effect)) | 0 (Herbicidal rate of 5% or less (almost no effect)) | 0 (Herbicidal rate of 5% or less (almost no effect)) | 0 (Herbicidal rate of 5% or less (almost no effect)) | 0 (Herbicidal rate of 5% or less (almost no effect)) | 0 (Herbicidal rate of 5% or less (almost no effect)) | 0 (Herbicidal rate of 5% or less (almost no effect)) | 5 (Herbicidal rate of 90% or more (almost completely withered)) | 5 (Herbicidal rate of 90% or more (almost completely withered)) | 3 (Herbicidal rate of 40% or more and less than 70%) | 0 (Herbicidal rate of 5% or less (almost no effect)) | 5 (Herbicidal rate of 90% or more (almost completely withered)) | 2 (Herbicidal rate of 20% or more and less than 40%) | G: green foxtail, herbicidal effect grade [21]: 3 (Herbicidal rate of 40% or more and less than 70%); H: barnyard grass, herbicidal effect grade [22]: 0 (Herbicidal rate of 5% or less (almost no effect)); I: wild oat, herbicidal effect grade [23]: 0 (Herbicidal rate of 5% or less (almost no effect)); J: blackgrass, herbicidal effect grade [24]: 0 (Herbicidal rate of 5% or less (almost no effect)); K: Italian ryegrass, herbicidal effect grade [25]: 0 (Herbicidal rate of 5% or less (almost no effect)); L: windgrass, herbicidal effect grade [26]: 3 (Herbicidal rate of 40% or more and less than 70%); M: velvetleaf, herbicidal effect grade [27]: 4 (Herbicidal rate of 70% or more and less than 90%); N: redroot pigweed, herbicidal effect grade [28]: 5 (Herbicidal rate of 90% or more (almost completely withered)); O: lambsquarters, herbicidal effect grade [29]: 5 (Herbicidal rate of 90% or more (almost completely withered)); P: chickweed, herbicidal effect grade [30]: 5 (Herbicidal rate of 90% or more (almost completely withered)); Q: false cleavers, herbicidal effect grade [31]: 5 (Herbicidal rate of 90% or more (almost completely withered)); R: persian speedwell, herbicidal effect grade [32]: 5 (Herbicidal rate of 90% or more (almost completely withered))
